# Laboratory results: US9745311B2, “Substituted pyrrolo[2,3-b]pyrazines as FGFR inhibitors” (Incyte Corporation, priority 2012, dated 2017)
# Experiments:
# FGFR1 = FGFR1 (Homo sapiens (Human), UniProt P11362); assay: FGFR Enzymatic Assay (FGFR1); format: biochemical; conditions: enzyme 0.02 nM, ATP 210 μM
# FGFR2 = FGFR2 (Homo sapiens (Human), UniProt P21802); assay: FGFR Enzymatic Assay (FGFR2); format: biochemical; conditions: enzyme 0.01 nM, ATP 100 μM; read-out: FGFR2 IC50;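 note: FRET read-out of peptide phosphorylation by the purified kinase, with enzyme-free blank and uninhibited enzyme as controls, potency from a variable-slope sigmoidal dose-response fit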
# Chain of FGFR2 (P21802 22-821): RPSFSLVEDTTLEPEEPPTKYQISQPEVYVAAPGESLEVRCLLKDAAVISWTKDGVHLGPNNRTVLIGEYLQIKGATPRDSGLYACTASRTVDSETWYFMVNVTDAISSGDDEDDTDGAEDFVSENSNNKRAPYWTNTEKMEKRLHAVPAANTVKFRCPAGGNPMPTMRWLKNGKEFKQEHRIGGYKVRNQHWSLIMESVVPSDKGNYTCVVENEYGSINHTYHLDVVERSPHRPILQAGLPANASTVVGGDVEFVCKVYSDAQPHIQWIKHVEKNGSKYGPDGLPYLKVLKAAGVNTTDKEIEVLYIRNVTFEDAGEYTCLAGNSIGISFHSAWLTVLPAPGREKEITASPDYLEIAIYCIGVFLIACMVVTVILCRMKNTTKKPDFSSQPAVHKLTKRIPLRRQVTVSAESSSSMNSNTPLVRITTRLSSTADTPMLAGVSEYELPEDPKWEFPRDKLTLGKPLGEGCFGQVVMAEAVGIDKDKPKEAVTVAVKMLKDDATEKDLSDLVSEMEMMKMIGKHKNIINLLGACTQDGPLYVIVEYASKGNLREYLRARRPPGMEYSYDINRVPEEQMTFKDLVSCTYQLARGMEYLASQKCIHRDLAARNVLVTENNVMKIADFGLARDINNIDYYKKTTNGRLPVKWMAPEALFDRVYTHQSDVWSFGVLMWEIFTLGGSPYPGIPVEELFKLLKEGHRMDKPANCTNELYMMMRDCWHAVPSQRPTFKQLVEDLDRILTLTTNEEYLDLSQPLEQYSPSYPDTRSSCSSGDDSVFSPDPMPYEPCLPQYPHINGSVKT
# FGFR3 enzyme (Millipore) = FGFR3 enzyme (Millipore) (Homo sapiens (Human), UniProt P22607); assay: biochemical
# Chain of FGFR3 enzyme (Millipore) (P22607 23-806): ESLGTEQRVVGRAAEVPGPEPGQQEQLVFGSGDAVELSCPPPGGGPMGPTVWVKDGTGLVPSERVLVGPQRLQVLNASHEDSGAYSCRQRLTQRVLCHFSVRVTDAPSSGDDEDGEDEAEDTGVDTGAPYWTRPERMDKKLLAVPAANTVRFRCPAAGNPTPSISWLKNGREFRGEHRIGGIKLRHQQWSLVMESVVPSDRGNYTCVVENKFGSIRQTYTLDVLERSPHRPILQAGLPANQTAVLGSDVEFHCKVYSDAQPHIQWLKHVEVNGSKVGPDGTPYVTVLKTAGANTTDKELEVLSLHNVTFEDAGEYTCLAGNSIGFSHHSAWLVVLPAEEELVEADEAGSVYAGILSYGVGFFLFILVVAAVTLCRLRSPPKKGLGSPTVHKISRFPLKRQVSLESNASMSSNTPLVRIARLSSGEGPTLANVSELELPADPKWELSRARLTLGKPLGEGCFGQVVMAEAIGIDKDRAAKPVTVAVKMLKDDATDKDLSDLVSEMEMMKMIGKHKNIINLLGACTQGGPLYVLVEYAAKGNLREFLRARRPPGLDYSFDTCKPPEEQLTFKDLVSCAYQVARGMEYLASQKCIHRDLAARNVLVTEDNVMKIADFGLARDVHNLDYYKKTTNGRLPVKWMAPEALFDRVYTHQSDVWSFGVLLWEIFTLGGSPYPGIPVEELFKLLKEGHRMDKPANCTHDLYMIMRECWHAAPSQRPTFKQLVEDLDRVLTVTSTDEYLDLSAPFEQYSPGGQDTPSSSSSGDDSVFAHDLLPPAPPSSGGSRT
# Method: The inhibitor potency of compounds was measured in an enzyme assay that measures peptide phosphorylation using FRET measurements to detect product formation. Inhibitors were serially diluted in DMSO and a volume of 0.5 μL was transferred to the wells of a 384-well plate. For FGFR3, a 10 μL volume of FGFR3 enzyme (Millipore) diluted in assay buffer (50 mM HEPES, 10 mM MgCl2, 1 mM EGTA, 0.01% Tween-20, 5 mM DTT, pH 7.5) was added to the plate and pre-incubated for 5-10 minutes. Appropriate controls (enzyme blank and enzyme with no inhibitor) were included on the plate. […] The plate was incubated at 25° C. for 1 hr. […] The plate was allowed to equilibrate for ˜1 hr before scanning the wells on a PheraStar plate reader.
# GraphPad prism3 was used to analyze the data. The IC50 values were derived by fitting the data to the equation for a sigmoidal dose-response with a variable slope. Y=Bottom+(Top−Bottom)/(1+10^((Log IC50−X)*HillSlope)) where X is the logarithm of concentration and Y is the response.
# Chain of FGFR1 (P11362 22-822): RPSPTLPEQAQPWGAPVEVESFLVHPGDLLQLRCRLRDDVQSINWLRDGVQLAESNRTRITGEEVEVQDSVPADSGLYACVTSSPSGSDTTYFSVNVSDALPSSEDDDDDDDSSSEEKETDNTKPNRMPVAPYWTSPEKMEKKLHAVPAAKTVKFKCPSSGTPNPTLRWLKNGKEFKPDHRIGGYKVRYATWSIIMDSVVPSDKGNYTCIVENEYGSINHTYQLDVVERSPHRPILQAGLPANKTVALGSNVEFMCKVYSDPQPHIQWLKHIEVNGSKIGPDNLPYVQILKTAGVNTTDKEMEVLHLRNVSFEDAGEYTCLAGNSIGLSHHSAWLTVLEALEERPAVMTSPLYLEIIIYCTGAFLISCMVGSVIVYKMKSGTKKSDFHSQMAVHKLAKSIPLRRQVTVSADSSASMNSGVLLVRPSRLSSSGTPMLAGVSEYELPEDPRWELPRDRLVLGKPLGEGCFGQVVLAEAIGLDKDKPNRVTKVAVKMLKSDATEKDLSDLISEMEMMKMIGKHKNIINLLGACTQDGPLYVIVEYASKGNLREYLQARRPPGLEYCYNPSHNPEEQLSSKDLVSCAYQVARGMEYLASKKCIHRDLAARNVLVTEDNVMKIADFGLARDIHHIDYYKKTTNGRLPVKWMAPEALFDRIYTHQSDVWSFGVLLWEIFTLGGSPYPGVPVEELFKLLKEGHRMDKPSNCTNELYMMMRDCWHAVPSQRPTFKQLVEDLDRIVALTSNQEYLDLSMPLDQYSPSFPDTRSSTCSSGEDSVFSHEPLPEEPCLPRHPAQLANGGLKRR
Structure (SMILES),IC50 (FGFR1) [µM],IC50 (FGFR2) [µM],IC50 (FGFR3 enzyme (Millipore)) [µM]
"COc1cc(CCc2cnc3[nH]c(C4=CCN(C)CC4)cc3n2)cc(OC)c1 [Example 23, 2-[2-(3,5-dimethoxyphenyl)ethyl]-6-(1-methyl-1,2,3,6-tetrahydropyridin-4-yl)-5H-pyrrolo[2,3-b]pyrazine]",< 0.1,< 0.1,0.1 to 0.5
"COc1cc(CCc2cnc3[nH]c(-c4cn[nH]c4)cc3n2)cc(OC)c1 [Example 29, 2-[2-(3,5-dimethoxyphenyl)ethyl]-6-(1H-pyrazol-4-yl)-5H-pyrrolo[2,3-b]pyrazine]",< 0.1,< 0.1,0.1 to 0.5
"COc1cc(CCc2cnc3[nH]c(-c4cnn(C)c4)cc3n2)cc(OC)c1 [Example 30, 2-[2-(3,5-dimethoxyphenyl)ethyl]-6-(1-methyl-1H-pyrazol-4-yl)-5H-pyrrolo[2,3-b]pyrazine]",< 0.1,< 0.1,0.1 to 0.5
"COc1cc(CCc2cnc3[nH]c(-c4cnn(C5CCN(C)CC5)c4)cc3n2)cc(OC)c1 [Example 37, 2-[2-(3,5-dimethoxyphenyl)ethyl]-6-[1-(1-methylpiperidin-4-yl)-1H-pyrazol-4-yl]-5H-pyrrolo[2,3-b]pyrazine]",< 0.1,< 0.1,0.1 to 0.5
"COc1cc(CCc2cnc3[nH]c(-c4cnn(CCO)c4)cc3n2)cc(OC)c1 [Example 38, 2-(4-{2-[2-(3,5-dimethoxyphenyl)ethyl]-5H-pyrrolo[2,3-b]pyrazin-6-yl}-1H-pyrazol-1-yl)ethanol]",< 0.1,< 0.1,0.1 to 0.5
"COc1cc(CCc2cnc3[nH]c(-c4cnn(CCN5CCN(C)CC5)c4)cc3n2)cc(OC)c1 [Example 42, 2-[2-(3,5-dimethoxyphenyl)ethyl]-6-{1-[2-(4-methylpiperazin-1-yl)ethyl]-1H-pyrazol-4-yl}-5H-pyrrolo[2,3-b]pyrazine]",< 0.1,< 0.1,0.1 to 0.5
"COc1cc(CCc2cnc3[nH]c(-c4cnn(CC(=O)N(C)C)c4)cc3n2)cc(OC)c1 [Example 43, 2-(4-{2-[2-(3,5-dimethoxyphenyl)ethyl]-5H-pyrrolo[2,3-b]pyrazin-6-yl}-1H-pyrazol-1-yl)-N,N-dimethylacetamide]",< 0.1,< 0.1,0.1 to 0.5
"CNC(=O)c1c(-c2ccc(N3CCN(C)CC3)cc2)[nH]c2ncc(CCc3cc(OC)cc(OC)c3)nc12 [Example 50, 2-[2-(3,5-dimethoxyphenyl)ethyl]-N-methyl-6-[4-(4-methylpiperazin-1-yl)phenyl]-5H-pyrrolo[2,3-b]pyrazine-7-carboxamide]",< 0.1,< 0.1,0.5 to 2.7
"COc1cc(CCc2cnc3[nH]c(-c4ccc(F)c(C(=O)N(C)C)c4)cc3n2)cc(OC)c1 [Example 54, 5-(2-(3,5-Dimethoxyphenethyl)-5H-pyrrolo[2,3-b]pyrazin-6-yl)-2-fluoro-N,N-dimethylbenzamide]",< 0.1,< 0.1,0.1 to 0.5
"COc1cc(CCc2cnc3[nH]c(-c4ccnc(N5CCN(C)CC5)c4)cc3n2)cc(OC)c1 [Example 55, 2-(3,5-Dimethoxyphenethyl)-6-(2-(4-methylpiperazin-1-yl)pyridin-4-yl)-5H-pyrrolo[2,3-b]pyrazine]",< 0.1,< 0.1,0.1 to 0.5
"COc1cc(CCc2cnc3[nH]c(-c4cnc(N)nc4)cc3n2)cc(OC)c1 [Example 58, 5-(2-(3,5-Dimethoxyphenethyl)-5H-pyrrolo[2,3-b]pyrazin-6-yl)pyrimidin-2-amine]",< 0.1,< 0.1,0.1 to 0.5
"COc1cc(CCc2cnc3[nH]c(-c4ccc(C(=O)N(C)C)nc4)cc3n2)cc(OC)c1 [Example 59, 5-(2-(3,5-Dimethoxyphenethyl)-5H-pyrrolo[2,3-b]pyrazin-6-yl)-N,N-dimethylpicolinamide]",< 0.1,< 0.1,0.1 to 0.5
"COc1cc(CCc2cnc3[nH]c(-c4ccnc(C#N)c4)cc3n2)cc(OC)c1 [Example 60, 4-(2-(3,5-Dimethoxyphenethyl)-5H-pyrrolo[2,3-b]pyrazin-6-yl)picolinonitrile]",< 0.1,< 0.1,0.1 to 0.5
"COc1cc(CCc2cnc3[nH]c(-c4ccc(OC)nc4)cc3n2)cc(OC)c1 [Example 61, 2-(3,5-Dimethoxyphenethyl)-6-(6-methoxypyridin-3-yl)-5H-pyrrolo[2,3-b]pyrazine]",< 0.1,< 0.1,0.1 to 0.5
"COc1cc(CCc2cnc3[nH]c(-c4ccc5cnn(C)c5c4)cc3n2)cc(OC)c1 [Example 63, 2-(3,5-Dimethoxyphenethyl)-6-(1-methyl-1H-indazol-6-yl)-5H-pyrrolo[2,3-b]pyrazine]",< 0.1,< 0.1,0.1 to 0.5
"COc1cc(CCc2cnc3[nH]c(-c4ccc(NC(C)=O)nc4)cc3n2)cc(OC)c1 [Example 67, N-(5-(2-(3,5-Dimethoxyphenethyl)-5H-pyrrolo[2,3-b]pyrazin-6-yl)pyridin-2-yl)acetamide]",< 0.1,< 0.1,0.1 to 0.5
"COc1cc(CCc2cnc3[nH]c(-c4ccc(N5CCCC5=O)nc4)cc3n2)cc(OC)c1 [Example 68, 1-(5-(2-(3,5-Dimethoxyphenethyl)-5H-pyrrolo[2,3-b]pyrazin-6-yl)pyridin-2-yl)pyrrolidin-2-one]",< 0.1,< 0.1,0.1 to 0.5
"COc1cc(CCc2cnc3[nH]c(-c4cncc(N5CCOCC5)c4)cc3n2)cc(OC)c1 [Example 69, 4-(5-(2-(3,5-Dimethoxyphenethyl)-5H-pyrrolo[2,3-b]pyrazin-6-yl)pyridin-3-yl)morpholine]",< 0.1,< 0.1,0.1 to 0.5
"COc1cc(CCc2cnc3[nH]c(-c4ccc5[nH]ncc5c4)cc3n2)cc(OC)c1 [Example 70, 2-(3,5-Dimethoxyphenethyl)-6-(1H-indazol-5-yl)-5H-pyrrolo[2,3-b]pyrazine]",< 0.1,< 0.1,0.1 to 0.5
"COc1cc(CCc2cnc3[nH]c(-c4ccnc(C(=O)N(C)C)c4)cc3n2)cc(OC)c1 [Example 74, 4-(2-(3,5-Dimethoxyphenethyl)-5H-pyrrolo[2,3-b]pyrazin-6-yl)-N,N-dimethylpicolinamide]",< 0.1,< 0.1,0.1 to 0.5
"COc1cc(CCc2cnc3[nH]c(-c4ccnc(C(=O)N5CC(O)C5)c4)cc3n2)cc(OC)c1 [Example 75, (4-(2-(3,5-Dimethoxyphenethyl)-5H-pyrrolo[2,3-b]pyrazin-6-yl)pyridin-2-yl)(3-hydroxyazetidin-1-yl)methanone]",< 0.1,< 0.1,0.1 to 0.5
